Measured values taken from patent US10294230B2, “3,3-difluoropiperidine carbamate heterocyclic compounds as NR2B NMDA receptor antagonists” (Rugen Holdings (Cayman) Limited, priority 2015, dated 2019).

Experiments:
[1] = tested on: immobility in forced swim test; experiment: Forced Swim Test (FST) in mice; type: in vivo
Source text: (§1) The forced swim test (FST) also known at the behavioural despair test was used to evaluate antidepressant activity (Porsolt et al., 1977 Arch. Int. Pharmacodyn. 229: 327-336, Porsolt et al., 1977, Eur. J. Pharmacol. 47:379-391). Mice or rats that are forced to swim in a situation from which they cannot escape, rapidly become immobile. Drugs with antidepressant activity, such as imipramine, reduce the amount of time spent in the immobile state. Therefore, the amount of immobility time during a test conducted after drug administration represents a useful indicator of antidepressant activity (Lucki et al 2001 Psychopharmacology 155:315-322; Porsolt et al., 1977, Nature 266:730-732).
(§2) Test compound E1-8.2 was administered as the free base.
Mice were evaluated in a single swimming test session of 6 minutes. Mice were placed in a transparent plastic cylinder 24 cm high with a diameter of 13 cm containing 10 cm of water with ambient temperature control generally from 22±2° C. Mice were placed in the water for 6 minutes and the duration of immobility during the last 4 minutes was measured.
Animals were observed by a blinded observer. The observer judged the animal to be immobile when it ceased all activity (struggling, swimming, jumping etc.) and floated passively atop the water. The amount of time each animal spent in the immobile state (and the latency to the first bout of immobility) was recorded and used for statistical analysis of compound effect. Group differences were evaluated by student's t-test (reference substance) or one-way ANOVA followed by post-hoc Dunnett's test (test substances). […]
Male mice (strain NLMN) weighing 25-35 g were used for testing. […] The mice were videotaped for 6 minutes, and the last 4 minutes of video were analyzed by a blinded observer off-line. […] The amount of time each animal spent in the immobile state was recorded and used for statistical analysis of compound effect. Group differences were evaluated by student's t-test or one-way ANOVA followed by post-hoc Dunnett's test. […]

[2] = tested on: immobility in forced swim test; experiment: Forced Swim Test (FST) in rats; type: in vivo
Source text: as §1, §2
Male Wistar rats weighing 197-251 g were used for the rat test. Rats were evaluated according to a two-session procedure with a swimming session of 15 minutes on the first day of the experiment (Session 1) followed 24 hours later by a 5-minute swimming test (Session 2). […] Rats were placed in the water 24 h later for 5 minutes (Session 2) and the duration of immobility was measured.
Animals were observed by a blinded observer. […] The amount of time each animal spent in the immobile state (and the latency to the first bout of immobility) was recorded and used for statistical analysis of compound effect. […]

NR2B = NR2B (Homo sapiens (Human), UniProt Q05586+Q13224); conditions: cited from earlier work
Sequence of NR2B (Q13224 27-1484, species assumed, other chains not shown): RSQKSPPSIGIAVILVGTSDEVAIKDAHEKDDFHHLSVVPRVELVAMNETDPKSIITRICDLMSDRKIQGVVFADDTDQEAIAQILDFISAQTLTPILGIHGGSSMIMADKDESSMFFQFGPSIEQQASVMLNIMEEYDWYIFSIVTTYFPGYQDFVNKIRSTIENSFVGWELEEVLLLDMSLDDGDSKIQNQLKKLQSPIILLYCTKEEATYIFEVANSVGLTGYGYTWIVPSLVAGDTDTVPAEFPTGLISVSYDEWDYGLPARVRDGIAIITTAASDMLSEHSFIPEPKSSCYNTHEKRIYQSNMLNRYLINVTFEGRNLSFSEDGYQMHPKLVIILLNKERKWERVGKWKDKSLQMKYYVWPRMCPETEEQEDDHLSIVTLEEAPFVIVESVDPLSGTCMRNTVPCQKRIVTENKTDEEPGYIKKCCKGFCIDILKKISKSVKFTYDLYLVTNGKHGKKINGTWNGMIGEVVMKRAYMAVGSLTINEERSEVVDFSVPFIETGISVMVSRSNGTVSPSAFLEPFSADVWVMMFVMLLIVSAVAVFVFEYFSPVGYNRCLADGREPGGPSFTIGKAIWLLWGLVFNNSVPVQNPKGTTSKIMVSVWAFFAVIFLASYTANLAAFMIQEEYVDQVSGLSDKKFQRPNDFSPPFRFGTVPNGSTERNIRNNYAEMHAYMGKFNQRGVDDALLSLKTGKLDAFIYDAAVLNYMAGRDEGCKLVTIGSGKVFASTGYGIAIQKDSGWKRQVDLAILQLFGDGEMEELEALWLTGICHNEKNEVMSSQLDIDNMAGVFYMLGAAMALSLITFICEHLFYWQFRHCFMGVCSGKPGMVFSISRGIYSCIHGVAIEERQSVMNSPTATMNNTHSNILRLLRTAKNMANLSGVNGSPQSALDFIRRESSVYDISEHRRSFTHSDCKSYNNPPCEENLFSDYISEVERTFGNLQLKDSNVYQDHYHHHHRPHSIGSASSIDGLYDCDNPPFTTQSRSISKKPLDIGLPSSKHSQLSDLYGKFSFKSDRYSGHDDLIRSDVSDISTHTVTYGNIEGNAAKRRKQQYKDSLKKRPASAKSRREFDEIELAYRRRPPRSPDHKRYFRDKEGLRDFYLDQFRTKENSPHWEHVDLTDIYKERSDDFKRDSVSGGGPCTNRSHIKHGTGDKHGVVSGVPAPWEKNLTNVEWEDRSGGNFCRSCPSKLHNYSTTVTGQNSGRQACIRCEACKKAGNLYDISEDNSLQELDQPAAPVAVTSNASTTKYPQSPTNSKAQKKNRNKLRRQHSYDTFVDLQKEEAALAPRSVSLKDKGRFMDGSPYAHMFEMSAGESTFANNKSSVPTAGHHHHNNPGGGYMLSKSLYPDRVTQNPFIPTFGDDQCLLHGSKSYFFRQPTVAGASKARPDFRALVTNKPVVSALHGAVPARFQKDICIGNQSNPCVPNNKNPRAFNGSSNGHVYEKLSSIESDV

Row | SMILES | immobility time, antidepressant activity ([1]; 32 mpk i.p. once 30 min before the test) | immobility time, antidepressant activity ([1]; 64 mpk p.o. once 60 min before the test) | immobility time, antidepressant activity ([1]; 128 mpk p.o. once 60 minutes before the test on Day 7) | immobility time, antidepressant activity ([2]; 32 mpk i.p. 3 times: 24 h, 4 h and 30 min before Session 2) | immobility time, antidepressant activity ([2]; 64 mpk p.o. 3 times: 24 h, 4 h and 60 min before Session 2) | potency against NR2B (NR2B)
1 | CN(C)CCCN1c2ccccc2CCc2ccccc21 [imipramine] | expected antidepressant activity | expected antidepressant activity | expected antidepressant activity | expected antidepressant activity | expected antidepressant activity | 
2 | Cc1ccc(COC(=O)N2CCC(CNc3ncccn3)C(F)C2)cc1 (single isomer, unassigned) [3R,4S enantiomer] |  |  |  |  |  | 25.5 nM
